Data taken from US11008346B2, “Beta-lactamase inhibitors” (priority 2014, dated 2021).

Legend:
[1] = target: T1, VIM-2 metallo β-lactamase (Pseudomonas aeruginosa, UniProt Q9K2N0); assay: β-lactamase enzyme inhibition, VIM-2; assay type: biochemical; conditions: Nitrocefin 100 μM, 486 nm; 15 min at 37° C. preincubation; read-out: IC50 VIM-2 (Class B)
T1 construct: made in house; host or cells: E. coli BL21(DE3)
In short: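 VIM-2 purified by Q sepharose anion exchange (50 mM Hepes pH 7.5, 0-600 mM NaCl gradient, two runs, >90% purity). Enzyme preincubated with inhibitor 15 min at 37° C; nitrocefin 100 μM final, absorbance at 486 nm followed 10 min. IC50 from initial hydrolysis rates versus inhibitor-free controls.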

[2] = test system: P. aeruginosa Ps296 expressing VIM-2; assay: broth microdilution MIC, P. aeruginosa VIM-2; assay type: cell-based; conditions: Fixed Mero (meropenem) 4 μg/mL
In short: (§1)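 Compounds were titrated in 2-fold steps from 32 to 0.25 μg/mL in cation-adjusted Mueller Hinton broth with a β-lactam held at 4 μg/mL. Plates were inoculated by CLSI broth microdilution with strains pre-grown 3–5 h. After 16–20 h at 37 °C, MIC was read visually.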

KPC-2 β-lactamase = target: T2, KPC-2 β-lactamase (Klebsiella pneumoniae, UniProt Q9F663); assay: β-lactamase enzyme inhibition, KPC-2; assay type: biochemical; conditions: imipenem substrate, 300 nm; 15 min at 37° C. preincubation; read-out: IC50 KPC-2 (Class A)
T2 construct: made in house; host or cells: E. coli BL21(DE3)
T2 sequence (Q9F663 25-293, looked up): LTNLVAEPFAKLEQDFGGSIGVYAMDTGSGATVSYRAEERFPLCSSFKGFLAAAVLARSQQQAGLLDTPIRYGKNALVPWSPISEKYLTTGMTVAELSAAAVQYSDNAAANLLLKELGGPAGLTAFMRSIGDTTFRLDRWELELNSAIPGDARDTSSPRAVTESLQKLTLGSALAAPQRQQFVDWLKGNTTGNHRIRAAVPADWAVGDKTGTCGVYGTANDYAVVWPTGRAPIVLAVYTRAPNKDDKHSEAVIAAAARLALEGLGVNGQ
In short: (§2)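 Native untagged β-lactamases were expressed in E. coli BL21(DE3) and purified. Enzyme was preincubated with inhibitor for 15 min at 37° C., then substrate hydrolysis was followed: nitrocefin 100 μM for p99 AmpC and OXA-1 (486 nm, 10 min), imipenem for KPC-2 (300 nm), cefotaxime for SHV-5 (260 nm). IC50 was derived from initial rates relative to uninhibited controls.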

[3] = test system: K. pneumoniae A-1797 expressing KPC-2 and VIM-4; assay: broth microdilution MIC, K. pneumoniae KPC-2 and VIM-4; assay type: cell-based; conditions: Fixed Mero (meropenem) 4 μg/mL
In short: as §1

OXA-1 β-lactamase = target: T3, OXA-1 β-lactamase (Escherichia coli, UniProt P13661); assay: β-lactamase enzyme inhibition, OXA-1; assay type: biochemical; conditions: Nitrocefin 100 μM, 486 nm; 15 min at 37° C. preincubation; read-out: IC50 OXA-1 (Class D)
T3 construct: made in house; host or cells: E. coli BL21(DE3)
T3 sequence (P13661 26-276): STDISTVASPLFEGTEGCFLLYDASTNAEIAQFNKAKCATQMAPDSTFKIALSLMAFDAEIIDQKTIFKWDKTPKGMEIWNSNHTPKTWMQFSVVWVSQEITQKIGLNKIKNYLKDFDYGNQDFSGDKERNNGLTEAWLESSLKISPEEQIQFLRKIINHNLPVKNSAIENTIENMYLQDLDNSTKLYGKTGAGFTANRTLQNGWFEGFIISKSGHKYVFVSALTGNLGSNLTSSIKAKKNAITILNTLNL
In short: as §2

[4] = test system: S. aureus MSSA-7 producing penicillinase PC-1; assay: broth microdilution MIC, S. aureus PC-1; assay type: cell-based; conditions: Fixed Pip (piperacillin) 4 μg/mL
In short: as §1

[5] = test system: K. pneumoniae 156319 expressing KPC-3; assay: broth microdilution MIC, K. pneumoniae KPC-3; assay type: cell-based; conditions: Fixed Mero (meropenem) 4 μg/mL
In short: as §1

p99 AmpC β-lactamase = target: T4, p99 AmpC β-lactamase (Enterobacter cloacae, UniProt P05364); assay: β-lactamase enzyme inhibition, p99 AmpC; assay type: biochemical
T4 construct: made in house; host or cells: E. coli BL21(DE3)
T4 sequence (P05364 21-381): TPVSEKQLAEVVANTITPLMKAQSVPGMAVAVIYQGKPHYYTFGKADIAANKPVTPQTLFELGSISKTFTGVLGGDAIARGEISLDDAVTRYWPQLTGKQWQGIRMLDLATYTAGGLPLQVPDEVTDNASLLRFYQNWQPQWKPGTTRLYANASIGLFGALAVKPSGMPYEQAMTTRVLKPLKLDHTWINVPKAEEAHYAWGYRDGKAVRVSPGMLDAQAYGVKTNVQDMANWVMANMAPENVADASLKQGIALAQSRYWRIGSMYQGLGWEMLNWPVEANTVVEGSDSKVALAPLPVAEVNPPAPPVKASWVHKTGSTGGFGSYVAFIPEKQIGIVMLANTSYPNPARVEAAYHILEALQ
In short: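 Native untagged E. cloacae p99 AmpC was expressed in E. coli BL21(DE3) and purified by cation exchange and gel filtration. Enzyme was preincubated with inhibitor at 37°C for 15 min.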

[6] = test system: E. coli ESBL4 expressing CTX-M-15; assay: broth microdilution MIC, E. coli CTX-M-15; assay type: cell-based; conditions: Fixed CAZ (ceftazidime) 4 μg/mL
In short: as §1

SHV-5 β-lactamase = target: T5, SHV-5 β-lactamase (Klebsiella pneumoniae, UniProt P0A3M1); assay: β-lactamase enzyme inhibition, SHV-5; assay type: biochemical
T5 construct: made in house; host or cells: E. coli BL21(DE3)
T5 sequence (P0A3M1 22-286): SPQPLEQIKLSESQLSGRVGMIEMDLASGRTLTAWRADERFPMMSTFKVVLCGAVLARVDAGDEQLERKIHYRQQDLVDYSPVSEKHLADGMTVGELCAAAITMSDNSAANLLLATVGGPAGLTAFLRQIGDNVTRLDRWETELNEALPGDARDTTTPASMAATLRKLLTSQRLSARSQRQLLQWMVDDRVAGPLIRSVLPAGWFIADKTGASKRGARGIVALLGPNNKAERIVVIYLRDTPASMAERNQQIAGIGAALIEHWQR
In short: as §2

[7] = test system: E. cloacae 144200 expressing Class C P99 AmpC; assay: broth microdilution MIC, E. cloacae P99; assay type: cell-based; conditions: Fixed CAZ (ceftazidime) 4 μg/mL
In short: as §1

Compound	IC50 [1] [nM]	MIC of exemplary compounds in presence of fixed β-lactams, P. aerug. Ps296 VIM-2 [2]	IC50 (KPC-2 β-lactamase) [nM]	MIC of exemplary compounds in presence of fixed β-lactams, K.P. A-1797 KPC-2 VIM-4 [3]	IC50 (OXA-1 β-lactamase) [nM]	MIC of exemplary compounds in presence of fixed β-lactams, S. aureus MSSA-7 PC-1 [4]	MIC of exemplary compounds in presence of fixed β-lactams, K.P. 156319 KPC-3 [5]	IC50 (p99 AmpC β-lactamase) [nM]	MIC of exemplary compounds in presence of fixed β-lactams, E. coli ESBL4 CTX-M-15 [6]	IC50 (SHV-5 β-lactamase) [nM]	MIC of exemplary compounds in presence of fixed β-lactams, E. cl. 144200 p99 AmpC [7]
NC(=O)NCCC(=O)N[C@H]1Cc2cccc(C(=O)O)c2OB1O [Example 23, (R)-2-Hydroxy-3-(3-ureido-propionylamino)-3,4-dihydro-2H-benzo[e][1,2]oxaborinine-8-carboxylic acid]	1000 to 10000	C (C represents the MIC in the presence of ≤4 g/mL of a β-lactamase inhibitor)	< 100	B (B represents the MIC in the presence of between 8 and 32 g/mL of a β-lactamase inhibitor)	< 100	C (C represents the MIC in the presence of ≤4 g/mL of a β-lactamase inhibitor)	C (C represents the MIC in the presence of ≤4 g/mL of a β-lactamase inhibitor)	< 100	C (C represents the MIC in the presence of ≤4 g/mL of a β-lactamase inhibitor)	100 to 1000	C (C represents the MIC in the presence of ≤4 g/mL of a β-lactamase inhibitor)
CC(C)(Cl)CCC(=O)N[C@H]1Cc2cccc(C(=O)O)c2OB1O [Example 24, (R)-3-(4-chloro-4-methylpentanamido)-2-hydroxy-3,4-dihydro-2H-benzo[e][1,2]oxaborinine-8-carboxylicacid]	1000 to 10000	B (B represents the MIC in the presence of between 8 and 32 g/mL of a β-lactamase inhibitor)	< 100	B (B represents the MIC in the presence of between 8 and 32 g/mL of a β-lactamase inhibitor)	< 100	C (C represents the MIC in the presence of ≤4 g/mL of a β-lactamase inhibitor)	C (C represents the MIC in the presence of ≤4 g/mL of a β-lactamase inhibitor)	< 100	C (C represents the MIC in the presence of ≤4 g/mL of a β-lactamase inhibitor)	< 100	C (C represents the MIC in the presence of ≤4 g/mL of a β-lactamase inhibitor)
CCOCC(=O)N[C@H]1Cc2cccc(C(=O)O)c2OB1O [Example 25, (R)-3-(2-ethoxyacetamido)-2-hydroxy-3,4-dihydro-2H-benzo[e][1,2]oxaborinine-8-carboxylic acid]	1000 to 10000	C (C represents the MIC in the presence of ≤4 g/mL of a β-lactamase inhibitor)	< 100	B (B represents the MIC in the presence of between 8 and 32 g/mL of a β-lactamase inhibitor)	< 100	C (C represents the MIC in the presence of ≤4 g/mL of a β-lactamase inhibitor)	C (C represents the MIC in the presence of ≤4 g/mL of a β-lactamase inhibitor)	< 100	C (C represents the MIC in the presence of ≤4 g/mL of a β-lactamase inhibitor)	< 100	C (C represents the MIC in the presence of ≤4 g/mL of a β-lactamase inhibitor)
COCCC(=O)N[C@H]1Cc2cccc(C(=O)O)c2OB1O [Example 26, (R)-2-Hydroxy-3-(3-methoxy-propionylamino)-3,4-dihydro-2H-benzo[e][1,2]oxaborinine-8-carboxylic acid]	1000 to 10000	B (B represents the MIC in the presence of between 8 and 32 g/mL of a β-lactamase inhibitor)	< 100	B (B represents the MIC in the presence of between 8 and 32 g/mL of a β-lactamase inhibitor)	< 100	C (C represents the MIC in the presence of ≤4 g/mL of a β-lactamase inhibitor)	C (C represents the MIC in the presence of ≤4 g/mL of a β-lactamase inhibitor)	< 100	C (C represents the MIC in the presence of ≤4 g/mL of a β-lactamase inhibitor)	100 to 1000	C (C represents the MIC in the presence of ≤4 g/mL of a β-lactamase inhibitor)
COCCOCC(=O)N[C@H]1Cc2cccc(C(=O)O)c2OB1O [Example 27, (R)-2-Hydroxy-3-[2-(2-methoxy-ethoxy)-acetylamino]-3,4-dihydro-2H-benzo[e][1,2]oxaborinine-8-carboxylic acid]	100 to 1000	A (A represents an MIC of the fixed β-lactam antibiotic in the presence of >32 g/mL of a β-lactamase inhibitor)	< 100	B (B represents the MIC in the presence of between 8 and 32 g/mL of a β-lactamase inhibitor)	< 100	C (C represents the MIC in the presence of ≤4 g/mL of a β-lactamase inhibitor)	C (C represents the MIC in the presence of ≤4 g/mL of a β-lactamase inhibitor)	< 100	C (C represents the MIC in the presence of ≤4 g/mL of a β-lactamase inhibitor)	< 100	C (C represents the MIC in the presence of ≤4 g/mL of a β-lactamase inhibitor)
O=C(CCn1cccn1)N[C@H]1Cc2cccc(C(=O)O)c2OB1O [Example 28, (R)-2-Hydroxy-3-(3-pyrazol-1-yl-propionylamino)-3,4-dihydro-2H-benzo[e][1,2]oxaborinine-8-carboxylicacid]	1000 to 10000	B (B represents the MIC in the presence of between 8 and 32 g/mL of a β-lactamase inhibitor)	< 100	B (B represents the MIC in the presence of between 8 and 32 g/mL of a β-lactamase inhibitor)	< 100	C (C represents the MIC in the presence of ≤4 g/mL of a β-lactamase inhibitor)	C (C represents the MIC in the presence of ≤4 g/mL of a β-lactamase inhibitor)	< 100	C (C represents the MIC in the presence of ≤4 g/mL of a β-lactamase inhibitor)	< 100	C (C represents the MIC in the presence of ≤4 g/mL of a β-lactamase inhibitor)
